These results are taken from patent publication US20080176923A1, “Proline Derivatives Used as Pharmaceutical Active Ingredients for the Treatment of Tumors” (priority 2003, published 2008).

Structures are written as SMILES. Values after ≈ are worked out from the molar mass of the structure shown. Like-named read-outs stand apart in the source and are kept apart here.

The test system of series [1] is MIA-PaCa2 pancreas tumor cell line. Nature of the series: tumor cell proliferation test (EZ4U tetrazolium), MIA-PaCa2. Particulars: Homo sapiens; for IC50: MIA PaCa-2. In kind it is cell-based. On the procedure:
(§1) The compounds of the invention were tested using the pancreas tumor cell lines MIYPaCa2 and BxPC3, the breast cancer cell lines MDA-MB-435 and BT20, as well as the colon cancer cell lines Colo205 and HT29. The cells were placed in culture medium (RPMI-1640 with 10% fetal calf serum and 4 mM glutamine) in 96-well microtiter plates to make 10,000 cells per well. The inventive components to be tested were diluted in microtiter plates according to the well-known procedure and incubated for 4 days under cell culture conditions (37° C., 5% CO2).
(§2) Following incubation, the proliferation was tested using a tetrazolium-based EZ4U kit from Biomedica (Vienna, Austria). The optical density (OD) of each well was determined by means of an ELISA Reader, and the control medium obtained was set to 100% (OD490 nm=0.5 to 1.5). The values in Table 1 are given in %, showing the inhibition of cellular proliferation, the concentration being 400 μg/ml (higher value) and 200 μg/ml (lower value).
(§3) Furthermore, (R)-(+)-α,α-diphenyl-2-pyrrolidinemethanol and (S)-(−)-α,α-diphenyl-2-pyrrolidinemethanol were tested. […] The results are given as IC50 (μg/ml).

Series [2] relates to Colo205 colon cancer cell line. Nature of the series: tumor cell proliferation test (EZ4U tetrazolium), Colo205. In kind it is cell-based. Particulars: Homo sapiens. The procedure: as §1, §2
(§4) In further tests, substances were dissolved in water, and their effect on the colon adenocarcinoma cell line Colo205 and pancreas adenocarcinoma cell line BxPC3 as targets was tested. The results obtained, in IC50 concentrations in μg/ml, are illustrated in Table 2.
(§5) A proliferation test—as described above—with an initial dilution of 400 μg/ml was carried out, either alone or in combination with 400, 200 or 100 μg of CHP. The cell lines used are illustrated in Table 3. […] Frequently, the proliferation is increased, or the inhibition achieved with specific substances is lower when using combined agents. The effect of CHP alone is shown on the left in the table, below each specified cell line, for the highest concentration of CHP (400 μg/ml).
as §3

Series [3] has as its system BxPC3 pancreas tumor cell line. The series is described as follows: tumor cell proliferation test (EZ4U tetrazolium), BxPC3. In kind it is cell-based. Particulars: Homo sapiens. On the procedure: as §1, §2, §4, §3
In series [4] the test system is MDA-MB435 breast cancer cell line. Nature of the series: tumor cell proliferation test (EZ4U tetrazolium), MDA-MB435. In kind it is cell-based. Particulars: Homo sapiens, MDA-MB-435, 96 h, 4 days, read-out: inhibition of cellular proliferation. The procedure:
as §1, §2

Series [5] deals with BT20 breast cancer cell line. Nature of the series: tumor cell proliferation test (EZ4U tetrazolium), BT20. In kind it is cell-based. Particulars: Homo sapiens, BT-20, 96 h, 4 days, read-out: inhibition of cellular proliferation. On the procedure: as §1, §2
Series [6] has as its system HT29 colon cancer cell line. The series is described as follows: tumor cell proliferation test (EZ4U tetrazolium), HT29. Particulars: Homo sapiens, HT-29, 96 h, 4 days, read-out: inhibition of cellular proliferation. In kind it is cell-based. On the procedure:
as §1, §2

Series [7] concerns T47D breast cancer cell line. The series is described as follows: tumor cell proliferation test, T47D. Particulars: Homo sapiens. In kind it is cell-based. The procedure:
as §1, §2, §5, §3

Series [8] relates to SW620 colon cancer cell line. The series is described as follows: tumor cell proliferation test, SW620. In kind it is cell-based. Particulars: Homo sapiens, SW-620, CHP 400 μg/ml alone, read-out: effect of CHP alone (% inhibition of proliferation, minus sign). On the procedure:
as §1, §2, §5

Series [9] relates to all 6 cell lines (MIA-PaCa2, Colo205, BxPC3, MDA-MB435, BT20, HT29). The series is described as follows: tumor cell proliferation test, mean value for all 6 cell lines. In kind it is cell-based. Particulars: read-out: inhibition; mean value±SEM for all 6 cell lines. The procedure: as §1, §2
The nature of series [10]: repeated oral administration to rats over 28 days, LC/MS of serum and urine. In kind it is in vivo. Particulars: repeated oral administration over 28 days. On the procedure: cis-4-Hydroxy-L-proline was repeatedly administered orally to rats over a period of 28 days. cis-4-Hydroxy-L-proline was analyzed in serum and urine samples using the LC/MS technique.
The subject of another series is Pana -1 pancreas cancer. Nature of the series: tumor cell proliferation test, Pana -1. In kind it is cell-based. The procedure: as §1, §2, §3
The mark [11] stands for this setting: MIA PaCa-2, 96 h, read-out: inhibition of cellular proliferation.
Setting [12] is: COLO 205, 96 h, read-out: inhibition of cellular proliferation.
Setting [13] is: BXPC-3, 96 h, read-out: inhibition of cellular proliferation.

For `O=C(O)[C@@H]1C[C@H](O)CN1` [CHP, cis-4-hydroxy-L-proline, reference compound], the inhibition at 200 µg/mL in [1] (setting [11]) is 34.5%; in series [2] (setting [12]), 60%; in series [3] (setting [13]), 27.8%; in [4] (MDA-MB435, 200 μg/ml), 19.9%; in series [5] (BT20, 200 μg/ml), 6.5%; in [6] (HT29, 200 μg/ml), 1.7%. The inhibition at 400 µg/mL in series [1] (setting [11]) turned out to be 51.3%; in series [2] (setting [12]), 78.2%; in [2] (COLO 205, read-out: effect of CHP alone (% inhibition of proliferation, minus sign)) it was 46%; in series [3] (setting [13]) it was 44.5%; in [4] (MDA-MB435, 400 μg/ml) it was 39.2%; in series [5] (BT20, 400 μg/ml) it was 10.6%. Moreover, the inhibition at 400 µg/mL was determined as 15.7% in [6] (HT29, 400 μg/ml); 17.4% in series [7] (read-out: effect of CHP alone (% inhibition of proliferation, minus sign)); 14% in series [8]; 40 ± 10.1% in series [9]. The IC50 in series [2] (COLO 205, read-out: IC50 Colo205) was 90 µg/mL; in [3] (BXPC-3, read-out: IC50 BxPC3) it was 400 µg/mL (≈ 3050 µM). The “level of cis-4-hydroxy-L-proline in serum or urine” value in series [10] is reported as “rapidly dropped”. For the same compound, in [10] (serum and urine), the “isomers and metabolites in the investigated samples (biotransformation)” value was “detection of isomers and metabolites”.
In the case of `OC(c1ccccc1)(c1ccccc1)[C@H]1CCCN1` [Substance 231.01, (R)-(+)-α,α-diphenyl-2-pyrrolidinemethanol], the IC50 in series [1] came to 50 µg/mL (≈ 197 µM); in series [2] (COLO 205), 45 µg/mL; in series [3] (BXPC-3) it was 60 µg/mL (≈ 237 µM); in series [7], 130 µg/mL; with Pana -1 pancreas cancer, 80 µg/mL (≈ 316 µM).
On the same counts, the results for `OC(c1ccccc1)(c1ccccc1)[C@@H]1CCCN1` [Substance 231.02, (S)-(−)-α,α-diphenyl-2-pyrrolidinemethanol] are 50 µg/mL (≈ 197 µM), 45 µg/mL, 50 µg/mL (≈ 197 µM), 190 µg/mL and 55 µg/mL (≈ 217 µM).
As to `CC(C)COC(=O)C1CC(O)CN1` [Substance A2, cis-hydroxy-L-proline isobutyl ester], the melting point stood at 139 °C. Besides, the IC50 in series [2] (COLO 205, substances dissolved in water, read-out: IC50 Colo205) was 18 µg/mL. In addition, the IC50 in [3] (BXPC-3, substances dissolved in water, read-out: IC50 BxPC3) came out at 15 µg/mL (≈ 80.1 µM).

The IC50 is the point on the concentration scale where inhibition reaches its midpoint. As a reminder, the melting point is the temperature of the solid-liquid transition.
